Assay results from US20250017914A1, “6-AZA-QUINOLINE DERIVATIVES AND RELATED USES” (Black Diamond Therapeutics, Inc., priority 2021, published 2025).

Target: T1, BaF3 BRAF-KIAA1549 fusion cells (Homo sapiens, UniProt P15056)
T1 construct: The BRAF-KIAA1549 fusion mutant was subcloned into pMXs-IRES-Blasticidin (RTV-016, Cell Biolabs, San Diego, CA); No tag given; Q9HCM3 (UPF0606 protein KIAA1549)
Assay: BaF3 BRAF-KIAA1549 fusion cell proliferation assay (CellTiterGlo, 96 hours)
Assay type: cell-based
Summary of the method: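 BaF3 cells retrovirally transduced with BRAF-KIAA1549 fusion and blasticidin-selected were plated at 7×10^4 c/well in RPMI, 10% heat-inactivated FBS, 1% L-glutamine, and exposed to compound for 96 hours. Growth was read as ATP content by CellTiterGlo luminescence. IC50 was fitted by Levenberg-Marquardt, normalised to DMSO-treated cells.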

T1 sequence (P15056 whole entry, change not shown, the tested form may be a part): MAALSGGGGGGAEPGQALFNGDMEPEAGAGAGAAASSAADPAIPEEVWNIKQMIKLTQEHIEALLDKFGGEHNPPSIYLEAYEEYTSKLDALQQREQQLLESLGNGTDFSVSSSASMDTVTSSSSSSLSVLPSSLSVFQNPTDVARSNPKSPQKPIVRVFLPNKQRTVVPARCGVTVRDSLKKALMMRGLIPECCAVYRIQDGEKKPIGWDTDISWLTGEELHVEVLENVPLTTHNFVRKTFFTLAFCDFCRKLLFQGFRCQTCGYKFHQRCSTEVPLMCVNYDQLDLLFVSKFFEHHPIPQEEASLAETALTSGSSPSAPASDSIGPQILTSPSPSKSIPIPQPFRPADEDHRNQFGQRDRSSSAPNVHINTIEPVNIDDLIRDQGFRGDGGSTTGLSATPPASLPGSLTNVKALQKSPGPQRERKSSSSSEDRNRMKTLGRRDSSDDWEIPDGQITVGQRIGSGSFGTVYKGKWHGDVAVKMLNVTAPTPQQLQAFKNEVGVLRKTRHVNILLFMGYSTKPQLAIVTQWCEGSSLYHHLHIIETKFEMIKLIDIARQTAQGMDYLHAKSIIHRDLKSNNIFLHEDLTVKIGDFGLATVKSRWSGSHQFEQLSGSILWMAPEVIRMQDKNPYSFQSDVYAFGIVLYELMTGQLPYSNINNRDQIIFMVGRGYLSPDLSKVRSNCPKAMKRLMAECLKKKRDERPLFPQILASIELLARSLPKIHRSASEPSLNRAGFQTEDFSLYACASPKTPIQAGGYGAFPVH

SMILES	GI50 (Table A2)	GI50 (Table A1)
CNc1cc2ncc(-c3cc(NC(=O)c4cnc5n4CCCC5C)ccc3C)cc2cn1 (centres unmarked) [Compound 214, 8-methyl-N-(4-methyl-3-(7-(methylamino)-1,6-naphthyridin-3-yl)phenyl)-5,6,7,8-tetrahydroimidazo[1,2-a]pyridine-3-carboxamide]	0.02 to 0.1 µM	–
CNc1cc2ncc(-c3cc(NC(=O)CN4CCC[C@H](C(F)(F)F)C4)ccc3C)cc2cn1 [Compound 63, (S)—N-(4-Methyl-3-(7-(methylamino)-1,6-naphthyridin-3-yl)phenyl)-2-(3-(trifluoromethyl)piperidin-1-yl)acetamide]	–	0.02 to 0.1 µM
CNc1cc2ncc(-c3cc(NC(=O)c4cnn5c4CC(C)CC5)ccc3C)cc2cn1 (centres unmarked) [Compound 265, 5-methyl-N-(4-methyl-3-(7-(methylamino)-1,6-naphthyridin-3-yl)phenyl)-4,5,6,7-tetrahydropyrazolo[1,5-a]pyridine-3-carboxamide]	< 0.02 µM	–
CNc1cc2nc(C#N)c(-c3cc(NC(=O)c4ccnc(C(F)(F)F)c4)ccc3C)cc2cn1 [Compound 79, N-(3-(2-cyano-7-(methylamino)-1,6-naphthyridin-3-yl)-4-methylphenyl)-2-(trifluoromethyl)isonicotinamide]	–	< 0.02 µM
CNc1cc2ncc(-c3cc(C(=O)Nc4cccc(C(C)(C)C#N)c4)cnn3)cc2cn1 [Compound 196, N-(3-(2-cyanopropan-2-yl)phenyl)-6-(7-(methylamino)-1,6-naphthyridin-3-yl)pyridazine-4-carboxamide]	≥ 0.5 µM	–
CNc1cc2ncc(-c3cc(NC(=O)c4n[nH]c5c4C[C@H](C)O[C@@H]5C)ccc3C)cc2cn1 [Compound 264, (5S,7R)-5,7-dimethyl-N-(4-methyl-3-(7-(methylamino)-1,6-naphthyridin-3-yl)phenyl)-1,4,5,7-tetrahydropyrano[3,4-c]pyrazole-3-carboxamide]	0.02 to 0.1 µM	–
CNc1cc2ncc(-c3cc(NC(=O)c4cnc5n4CCC(C)C5)ccc3C)cc2cn1 (centres unmarked) [Compound 195, 7-methyl-N-(4-methyl-3-(7-(methylamino)-1,6-naphthyridin-3-yl)phenyl)-5,6,7,8-tetrahydroimidazo[1,2-a]pyridine-3-carboxamide]	≥ 0.5 µM	–
CNc1cc2ncc(-c3cc(NC(=O)c4cnc5n4CCCC5)ccc3C)cc2cn1 [Compound 216, N-(4-methyl-3-(7-(methylamino)-1,6-naphthyridin-3-yl)phenyl)-5,6,7,8-tetrahydroimidazo[1,2-a]pyridine-3-carboxamide]	0.1 to 0.5 µM	–
CNc1cc2ncc(-c3c(C)ncc(NC(=O)c4cc(C(C)(C)C#N)ccn4)c3Cl)cc2cn1 [Compound 197, N-[4-chloro-6-methyl-5-[7-(methylamino)-1,6-naphthyridin-3-yl]-3-pyridyl]-4-(1-cyano-1-methyl-ethyl)pyridine-2-carboxamide]	≥ 0.5 µM	–
CNc1cc2ncc(-c3cc(NC(=O)c4cc(C(C)(C)C#N)ccn4)nnc3C)cc2cn1 [Compound 77, 4-(2-cyanopropan-2-yl)-N-(6-methyl-5-(7-(methylamino)-1,6-naphthyridin-3-yl)pyridazin-3-yl)picolinamide]	–	0.02 to 0.1 µM
CNc1cc2c(C#N)cc(-c3cc(NC(=O)c4ccnc(C(F)(F)F)c4)ccc3C)cc2cn1 [Compound 273, N-(3-(5-cyano-3-(methylamino)isoquinolin-7-yl)-4-methylphenyl)-2-(trifluoromethyl)isonicotinamide]	0.1 to 0.5 µM	–
CNc1cc2ncc(-c3cc(NC(=O)c4cc(C(C)(C)C(N)=O)ccn4)ccc3C)cc2cn1 [Compound 255]	0.02 to 0.1 µM	–
CNc1cc2ncc(-c3cc(NC(=O)c4cnc5n4CC(C(F)F)CC5)ccc3C)cc2cn1 (centres unmarked) [Compound 238, 6-(difluoromethyl)-N-(4-methyl-3-(7-(methylamino)-1,6-naphthyridin-3-yl)phenyl)-5,6,7,8-tetrahydroimidazo[1,2-a]pyridine-3-carboxamide]	0.02 to 0.1 µM	–
CNc1cc2ncc(-c3cc(NC(=O)c4cccc(N(C)C)c4)ccc3C)cc2cn1 [Compound 4, 3-(Dimethylamino)-N-(4-methyl-3-(7-(methylamino)-1,6-naphthyridin-3-yl)phenyl)benzamide]	–	< 0.02 µM
CNc1cc2ncc(-c3cc(F)c(F)c(NC(=O)c4cc(C(C)(C)C#N)ccn4)c3)cc2cn1 [Compound 46, 4-(2-Cyanopropan-2-yl)-N-(2,3-difluoro-5-(7-(methylamino)-1,6-naphthyridin-3-yl)phenyl)picolinamide]	–	0.1 to 0.5 µM

Other lines, results leading:

GI50 (Table A2)	GI50 (Table A1)	SMILES
–	< 0.02 µM	CNc1cc2ncc(-c3cc(NC(=O)c4nccc(C(F)(F)F)c4F)cnc3C)cc2cn1 [Compound 52, 3-Fluoro-N-(6-methyl-5-(7-(methylamino)-1,6-naphthyridin-3-yl)pyridin-3-yl)-4-(trifluoromethyl)picolinamide]
0.02 to 0.1 µM	–	CNc1cc2ncc(-c3cc(NC(=O)c4cnc5n4C[C@@H](C)CC5)cnc3C)cc2cn1 (single isomer, unassigned) [Compound 258]
0.1 to 0.5 µM	–	CNc1cc2ncc(-c3cc(NC(=O)c4noc5c4CC(C(C)(C)C)CC5)cnc3C)cc2cn1 (centres unmarked) [Compound 241, 5-(tert-butyl)-N-(6-methyl-5-(7-(methylamino)-1,6-naphthyridin-3-yl)pyridin-3-yl)-4,5,6,7-tetrahydrobenzo[d]isoxazole-3-carboxamide]
–	0.02 to 0.1 µM	CNc1cc2ncc(-c3cc(NC(=O)c4cc(C5(C#N)CCC5)ccn4)cnc3C)cc2cn1 [Compound 31, 4-(1-Cyanocyclobutyl)-N-(6-methyl-5-(7-(methylamino)-1,6-naphthyridin-3-yl)pyridin-3-yl)picolinamide]
–	0.02 to 0.1 µM	CNc1cc2ncc(-c3cc(NC(=O)c4cc(C(C)(C)C#N)ccn4)cc(F)c3F)cc2cn1 [Compound 39, 4-(2-Cyanopropan-2-yl)-N-(3,4-difluoro-5-(7-(methylamino)-1,6-naphthyridin-3-yl)phenyl)picolinamide]
0.02 to 0.1 µM	–	CNc1cc2ncc(-c3cc(NC(=O)c4cccc(C5(C#N)CC5)c4)cnc3C)cc2cn1 [Compound 191, 3-(1-cyanocyclopropyl)-N-(6-methyl-5-(7-(methylamino)-1,6-naphthyridin-3-yl)pyridin-3-yl)benzamide]
–	< 0.02 µM	CNc1cc2ncc(-c3cc(NC(=O)c4cc(C5(C#N)CC5)ccn4)cnc3C)cc2cn1 [Compound 32, 4-(1-Cyanocyclopropyl)-N-(6-methyl-5-(7-(methylamino)-1,6-naphthyridin-3-yl)pyridin-3-yl)picolinamide]
0.02 to 0.1 µM	–	CNc1cc2ncc(-c3cc(NC(=O)c4cc([C@H](O)C(C)(F)F)ccn4)cnc3C)cc2cn1 (single isomer, unassigned) [Compound 249]
–	0.02 to 0.1 µM	CNc1cc2ncc(-c3cc(NC(=O)c4cc(C(C)(C)C#N)ccn4)cc(F)c3C)cc2cn1 [Compound 38, 4-(2-Cyanopropan-2-yl)-N-(3-fluoro-4-methyl-5-(7-(methylamino)-1,6-naphthyridin-3-yl)phenyl)picolinamide]
0.02 to 0.1 µM	–	CNc1cc2ncc(-c3cc(NC(=O)c4cnc5n4CC(C)CC5)cnc3C)cc2cn1 (centres unmarked) [Compound 225, 6-methyl-N-(6-methyl-5-(7-(methylamino)-1,6-naphthyridin-3-yl)pyridin-3-yl)-5,6,7,8-tetrahydroimidazo[1,2-a]pyridine-3-carboxamide]
–	< 0.02 µM	CNc1cc2ncc(-c3cc(NC(=O)c4ccnc(C(C)(C)F)c4)ccc3C)cc2cn1 [Compound 10, 2-(2-Fluoropropan-2-yl)-N-(4-methyl-3-(7-(methylamino)-1,6-naphthyridin-3-yl)phenyl)isonicotinamide]
0.02 to 0.1 µM	–	CNc1cc2ncc(-c3cc(NC(=O)c4n[nH]c5c4C[C@H]4C[C@@H]54)cnc3C)cc2cn1 [Compound 253, (4aR,5aR)—N-(6-methyl-5-(7-(methylamino)-1,6-naphthyridin-3-yl)pyridin-3-yl)-4,4a,5,5a-tetrahydro-1H-cyclopropa[4,5]cyclopenta[1,2-c]pyrazole-3-carboxamide]
–	< 0.02 µM	CNc1cc2ncc(-c3cc(NC(=O)c4nccc(C(F)(F)F)c4Cl)ccc3C)cc2cn1 [Compound 6, 3-Chloro-N-(4-methyl-3-(7-(methylamino)-1,6-naphthyridin-3-yl)phenyl)-4-(trifluoromethyl)picolinamide]
–	0.02 to 0.1 µM	CNc1cc2ncc(-c3cc(NC(=O)c4cc(C(F)(F)F)c(C)cn4)cnc3C)cc2cn1 [Compound 25, 5-Methyl-N-(6-methyl-5-(7-(methylamino)-1,6-naphthyridin-3-yl)pyridin-3-yl)-4-(trifluoromethyl)picolinamide]
≥ 0.5 µM	–	CNc1cc2ncc(-c3cc(NC(=O)c4cccc5c4CCC[C@@H]5O)cnc3C)cc2cn1 (single isomer, unassigned) [Compound 207]
–	< 0.02 µM	CNc1cc2ncc(-c3cc(NC(=O)c4cncc(C(F)(F)F)c4)ccc3C)cc2cn1 [Compound 3, N-(4-methyl-3-(7-(methylamino)-1,6-naphthyridin-3-yl)phenyl)-5-(trifluoromethyl)nicotinamide]
0.02 to 0.1 µM	–	CNc1cc2ncc(-c3cc(NC(=O)c4cnc5n4CC(C(F)(F)F)CC5)cnc3C)cc2cn1 (centres unmarked) [Compound 243]
0.02 to 0.1 µM	–	CNc1cc2ncc(-c3cc(NC(=O)c4cc(C(N(C)C)C(F)(F)F)ccn4)ccc3C)cc2cn1 (centres unmarked) [Compound 218, 4-(1-(dimethylamino)-2,2,2-trifluoroethyl)-N-(4-methyl-3-(7-(methylamino)-1,6-naphthyridin-3-yl)phenyl)picolinamide]
–	≥ 0.5 µM	CNc1cc2ncc(-c3cc(NC(=O)c4ccc(OC(F)F)cn4)cnc3C)cc2cn1 [Compound 72, 5-(Difluoromethoxy)-N-(6-methyl-5-(7-(methylamino)-1,6-naphthyridin-3-yl)pyridin-3-yl)picolinamide]
–	0.02 to 0.1 µM	CNc1cc2ncc(-c3cc(NC(=O)c4ccnc(C(F)F)c4)ccc3C)cc2cn1 [Compound 8, 2-(Difluoromethyl)-N-(4-methyl-3-(7-(methylamino)-1,6-naphthyridin-3-yl)phenyl)isonicotinamide]
